1 molecule from ChEMBL document CHEMBL1799987, “In vivo and in vitro SAR of tetracyclic MAPKAP-K2 (MK2) inhibitors. Part II” (Bioorg Med Chem Lett, 2010) can be followed below.

Data set [1] can be described thus: Plasma concentration in collagen-induced arthritic DBA/1 mouse model at 100 mg/kg, po BID measured 6 hrs post last dose. The data set is classed as ADME, organism-based. Set-up: dose 100 mg/kg, route oral.
The species named for data set [2] is Mus musculus. Description: animal or person. The note with it: OF1, po, 1 h, read-out: INH.
Description: Inhibition of LPS-induced TNFalpha production in OF1 mouse at 100 mg/kg, po after 1 hr by ELISA
The subject of data set [3] is Mus musculus. In words: Antiarthritic activity in DBA/1 mouse assessed as inhibition of collagen-induced joint erosion at 100 mg/kg, po BID. Set-up: dose 100 mg/kg. The data set is classed as functional, organism-based.
Data set [4] can be described thus: Plasma concentration in antigen-induced arthritic rat model at 100 mg/kg, po BID measured 16 hrs post last dose. The format is ADME, organism-based. The arrangement: dose 100 mg/kg, route oral.
Data set [5] is described as follows: Half life in rat at 1 mg/kg, po. The format is ADME, organism-based. Set-up: dose 1 mg/kg, route oral. The note with it: in vivo.
The nature of data set [6]: AUC in rat at 1 mg/kg, po. The note with it: plasma. The format is ADME, organism-based. The arrangement: dose 1 mg/kg, route oral.
The nature of data set [7]: Plasma concentration in antigen-induced arthritic rat model at 100 mg/kg, po BID measured 2 hrs post last dose. The data set is classed as ADME, organism-based. The arrangement: dose 100 mg/kg, route oral.
Data set [8] in a line: Plasma concentration in collagen-induced arthritic DBA/1 mouse model at 100 mg/kg, po BID measured 2 hrs post last dose. The data set is classed as ADME, organism-based. The arrangement: dose 100 mg/kg, route oral.
Data set [9] has as its system Mus musculus. In words: Antiarthritic activity in DBA/1 mouse assessed as inhibition of collagen-induced proteoglycan loss at 100 mg/kg, po BID. The data set is classed as functional, organism-based. Set-up: dose 100 mg/kg.
Data set [10] is described as follows: Thermodynamic solubility of the compound at pH 6.8. The format is physicochemical. The note with it: buffer, read-out: Therm_solubility.
The nature of data set [11]: Clearance in rat at 1 mg/kg, po. The data set is classed as ADME, organism-based. The settings on record: in vivo. The arrangement: dose 1 mg/kg, route oral.
The subject of data set [12] is Mus musculus. In words: Antiarthritic activity in DBA/1 mouse assessed as inhibition of collagen-induced paw swelling at 100 mg/kg, po BID. The format is functional, organism-based. The arrangement: dose 100 mg/kg.
Data set [13] deals with Mus musculus. Description: Antiarthritic activity in DBA/1 mouse assessed as inhibition of collagen-induced joint damage at 100 mg/kg, po BID. The data set is classed as functional, organism-based. The arrangement: dose 100 mg/kg.
Data set [14] has as its system Mus musculus. In words: Toxicity in collagen-induced arthritic DBA/1 mouse model assessed as body weight reduction at 100 mg/kg, po BID. The note with it: in vivo. The format is organism-based. The arrangement: dose 100 mg/kg, route oral.
Data set [15] can be described thus: Oral bioavailability in rat at 1 mg/kg. The data set is classed as ADME, organism-based. The settings on record: in vivo.
Data set [16] concerns Rattus norvegicus. In words: Volume of distribution at steady state in rat at 1 mg/kg, po. The data set is classed as ADME, organism-based. The arrangement: dose 1 mg/kg, route oral. The settings on record: in vivo.
The subject of data set [17] is Mus musculus. Description: Antiarthritic activity in DBA/1 mouse assessed as inhibition of collagen-induced inflammatory cell infiltration at 100 mg/kg, po BID. The data set is classed as functional, organism-based. Set-up: dose 100 mg/kg.
Data set [18] has as its system Rattus norvegicus. Description: Antiarthritic activity in rat assessed as inhibition of antigen-induced paw swelling at 100 mg/kg, po BID. The data set is classed as functional, organism-based. The arrangement: dose 100 mg/kg.
The next data set concerns PBMC. Description: cells. The note with it: Homo sapiens.
Data set [19] in a line: Plasma concentration in antigen-induced arthritic rat model at 100 mg/kg, po BID measured 6 hrs post last dose. The data set is classed as ADME, organism-based. The arrangement: dose 100 mg/kg, route oral.
A further data set has as its system Plasma. In words: Plasma concentration in OF1 mouse at 100 mg/kg, po. The format is ADME, organism-based. The arrangement: dose 100 mg/kg, route oral. The note with it: in vivo.
The nature of data set [20]: Cmax in rat at 1 mg/kg, po. The arrangement: dose 1 mg/kg, route oral. The data set is classed as ADME, organism-based. The note with it: in vivo.
Data set [21] deals with Rattus norvegicus. Description: Toxicity in antigen-induced arthritic rat model assessed as body weight reduction at 100 mg/kg, po BID. The format is organism-based. Set-up: dose 100 mg/kg, route oral. The settings on record: in vivo.

pIC50: −log10 of the molar value. ≈ marks a conversion by molar mass, not a printed value. Calls of active or inactive are those of the source. The calls are words filed in the database; no cut-off is given here.

Description for PBMC: Inhibition of LPS-induced TNFalpha production in human PBMC preincubated for 30 mins measured after 3 hrs of LPS stimulation

In general, half-life refers to the time in which the quantity being followed falls by half. A higher half-life goes with slow loss. A word on the AUC: it is concentration integrated over time. The low end stands for low exposure, the high end for high exposure. As usually defined, the CL/F is the apparent clearance, not corrected for the fraction that reaches the circulation. A word on the bioavailability: it is the share of a dose that reaches the circulation, judged against a reference dose that is usually intravenous. Low readings indicate little systemic uptake, high ones much systemic uptake. What is called pIC50 is the negative decadic logarithm of the IC50, by convention in mol/L. The low end stands for a large IC50, the high end for a small IC50. In general, Cmax refers to the maximum level reached in the sampled fluid or tissue. As for `O=C1NC2(CC2)Cc2[nH]c3c(c21)CCc1cnc(-c2ccc(F)nc2)cc1-3`, the concentration at 6 h in [1] worked out at 2.4 µM; in data set [19], 9.8 µM. In addition, the inhibition in vivo at 100 mg/kg in the data set listed under Mus musculus [2] was found to be 96%. Further, the result in the data set on Mus musculus [3], with Mus musculus [9], in the data set on Mus musculus [12], with Mus musculus [13], with Mus musculus [17] and with Rattus norvegicus [18] was Active. This molecule also returned a concentration at 16 h in data set [4] of 0.5 µM. In addition, in data set [5], the half-life is 1.3 h. Besides, in [6], the AUC came out at 2 µM·h. The concentration at 2 h stood at 11.7 µM in data set [7] and 16 µM in [8]. Moreover, the solubility thermodynamic in [10] is 9 µM (≈ 3.24 µg/mL). Besides, the CL/F in data set [11] stood at 12 mL/min/kg. Further, the Activity entry in the data set on Mus musculus [14] and with Rattus norvegicus [21] was “Non-toxic” in each case. In data set [15], this molecule gave a bioavailability of 24%. The same molecule had a Vdss in the data set on Rattus norvegicus [16] of 1.9 L/kg. The molecule also had a pIC50 in the data set with PBMC of 6.52. This molecule also had a concentration with Plasma of 30 µM. The Cmax in [20] was determined as 0.105 µM.
